From US20100249138A1, “MPZP: A SMALL MOLECULE CORTICOTROPIN-RELEASING FACTOR TYPE 1 RECEPTOR (CRF1) ANTOGONIST” (priority 2007, published 2010)
Entries after “also recorded” stand apart in the source; their conditions may differ.

Legend:
[1] = system: cocaine self-administration; experiment: Cocaine self-administration in short access (ShA) and long access (LgA) rats; format: in vivo, rat
[2] = system: cocaine self-administration; conditions: 30 minute pretreatment; limited (2 hour) daily drug access; cited from earlier work
[3] = system: ethanol self-administration; conditions: cited from earlier work
[4] = system: defensive withdrawal behavior; conditions: 20 mg/kg i.p.; cited from earlier work
[5] = system: intracerebroventricular CRF-induced anxiogenic-like behavior; conditions: 20 mg/kg i.p.; cited from earlier work
plasma ACTH = conditions: 20 mg/kg i.p.; cited from earlier work
[6] = cited from earlier work
[7] = in vivo; cited from earlier work
[8] = cLogP, Advanced Chemistry Development Software Solaris V4.67; conditions: from cLogP

more hydrophobic than MPZP (fold) [8]: ~30,000 fold | more hydrophobic than MPZP (orders) [8]: approximately 4.5 orders
Structure (SMILES): CCCCN(CC)c1nc(C)nc2c1c(C)c(C)n2-c1c(C)cc(C)cc1C.Cl [antalarmin, N-Butyl-N-ethyl-2,5,6-trimethyl-7-(2,4,6-trimethyl-phenyl)-7H-pyrrolol[2,3-d]pyrimidin-4-amine hydrochloride]
slope of linear trend dose function on cocaine intake ([1]; LgA rats): −0.32 | decrease of cocaine intake compared to vehicle pretreatment ([1]; LgA rats, 25 mg/kg i.p., 80 minutes before 1 hour session): 13.3% | cocaine intake compared with vehicle ([1]; LgA rats, 25 mg/kg i.p., hydrochloride, 25 mg/kg): significant decrease; also recorded: significantly decreased | slope of linear trend dose function on cocaine intake ([1]; ShA rats): 0.01394 | cocaine intake compared to vehicle pretreatment ([1]; ShA rats, antalarmin 6.25-25 mg/kg i.p., hydrochloride): no dose significantly altered cocaine intake; also recorded: without significantly altering | dose-response function of cocaine self-administration [2]: did not alter | escalated ethanol intake ([3]; ethanol-dependent rats, acute withdrawal, 20 mg/kg i.p.): dose-dependently reduced | ethanol self-administration ([3]; nondependent rats): did not influence | spontaneous defensive withdrawal behavior [4]: inhibit | intracerebroventricular CRF-induced anxiogenic-like behavior in the elevated plus maze [5]: inhibit | CRF-induced increases in plasma ACTH levels (plasma ACTH): blocked | aqueous solubility [6]: poor | bioavailability [7]: low
